In US10308634B2, “Substituted indazoles, methods for the production thereof, pharmaceutical preparations that contain said new substituted indazoles, and use of said new substituted indazoles to produce drugs” (BAYER PHARMA AKTIENGESELLSCHAFT, priority 2014, dated 2019):
Read-outs that look alike come from different tables or passages of the source.

Experiments:
[1] = system: THP-1 cells; assay: TNF-α secretion in THP-1 cells (LPS-triggered, HTRF); format: cell-based; conditions: Homo sapiens, read-out: IC50 with respect to the secretion of TNF-α in THP-1 cells
Description: This test is suited to test substances for their ability to inhibit secretion of TNF-α (tumour necrosis factor alpha) in THP-1 cells (human monocytic acute leukaemia cell line). TNF-α is a cytokine involved in inflammatory processes. In this test, TNF-α secretion is triggered by incubation with bacterial lipopolysaccharide (LPS).
The cells were incubated at room temperature for 15 min. 2-2.5 μl of 0.1 μg/ml LPS (Sigma, Escherichia coli 055:B5, Cat. No. L5418) dissolved in cell culture medium (final concentration 0.05 μg/ml) were then dispensed into each well. As neutral control, cells were treated with 0.05 μg/ml LPS and 1% DMSO and, as inhibitor control, with 1% DMSO only.
The amount of TNF-α was determined using the TNF-alpha HTRF Detection Kit (Cisbio, Cat. No. 62TNFPEB/C). To this end, 2 μl of the detection solution in each case, consisting of anti-TNF-α-XL665 conjugate and anti-TNF-α-cryptate conjugate dissolved in the reconstitution buffer in accordance with the manufacturer's instructions, were added for the HTRF (Homogeneous Time-Resolved Fluorescence) test. After the addition, the mixture was incubated either at room temperature for 3 h or at 4° C. overnight.
The activity of the substances is expressed as the ratio between neutral and inhibitor control in percent. The IC50 values were calculated using a 4-parameter fit.

[2] = biological target: human IRAK4 (Homo sapiens (Human), UniProt Q9NWZ3); assay: IRAK4 kinase assay (IRAK4 TR-FRET assay); format: biochemical
Description: The IRAK4-inhibitory activity of the inventive substances was measured in the IRAK4 TR-FRET assay (TR-FRET=Time Resolved Fluorescence Resonance Energy Transfer) described hereinafter.
Recombinant fusion protein from N-terminal GST (glutathione S-transferase) and human IRAK4, expressed in baculovirus-infected insect cells (Hi5, BTI-TN-5B1-4, cell line purchased from Invitrogen, catalogue No. B855-02) and purified via affinity chromatography, was used as enzyme. The substrate used for the kinase reaction was the biotinylated peptide biotin-Ahx-[…] (C-terminus in amide form) which can be purchased, for example, from Biosyntan GmbH (Berlin-Buch).
50 nl of the respective solution were pipetted into a black low-volume 384-well microtitre plate (Greiner Bio-One, Frickenhausen, Germany), 2 μl of a solution of IRAK4 in assay buffer [50 mM HEPES pH 7.5, 5 mM MgCl2, 1.0 mM dithiothreitol, 30 μM activated sodium orthovanadate, 0.1% (w/v) of bovine gamma-globulin (BGG) 0.04% (v/v) nonidet-P40 (Sigma)] were added and the mixture was incubated for 15 min to allow prebinding of the substances to the enzyme prior to the kinase reaction. […] The concentration of the IRAK4 was adjusted to the respective activity of the enzyme and set such that the assay was carried out in the linear range. Typical concentrations were in the order of about 0.2 nM.
The resulting mixture was incubated at 22° C. for 1 h to allow formation of a complex of the biotinylated phosphorylated substrate and the detection reagents. The amount of the phosphorylated substrate was then evaluated by measuring the resonance energy transfer from europium chelate-labelled anti-mouse-IgG antibody to streptavidin-XL665. […] The IC50 values were calculated by a 4-parameter fit.

[3] = TR-FRET, 1 mM ATP, read-out: IC50 in the IRAK4 kinase assay

human IRAK4, sequence (Q9NWZ3 whole entry): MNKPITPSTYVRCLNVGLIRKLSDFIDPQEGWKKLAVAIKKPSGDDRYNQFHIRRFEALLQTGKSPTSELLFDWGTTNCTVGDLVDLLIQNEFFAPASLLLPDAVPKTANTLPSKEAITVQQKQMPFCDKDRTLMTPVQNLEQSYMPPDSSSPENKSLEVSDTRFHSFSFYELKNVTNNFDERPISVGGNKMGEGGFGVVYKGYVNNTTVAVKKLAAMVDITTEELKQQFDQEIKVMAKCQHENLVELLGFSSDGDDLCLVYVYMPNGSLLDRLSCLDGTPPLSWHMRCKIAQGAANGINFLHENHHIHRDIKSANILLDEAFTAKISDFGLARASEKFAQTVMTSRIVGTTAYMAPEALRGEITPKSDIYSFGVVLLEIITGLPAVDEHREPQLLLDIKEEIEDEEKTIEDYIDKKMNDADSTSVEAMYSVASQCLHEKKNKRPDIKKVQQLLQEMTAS

IC50 ([1]; THP-1, 0.05 μg/ml LPS, 17 h) [nM] | IC50 [2, 3] [nM] | Compound | IC50 ([1]; THP-1, 17 h) [nM] | IC50 [2] [nM]
1000 | 30.6 | COCCn1cc2cc(NC(=O)c3cccc(C(F)(F)F)n3)c(C(C)(C)O)cc2n1 [Example 1, N-[6-(2-Hydroxypropan-2-yl)-2-(2-methoxyethyl)-2H-indazol-5-yl]-6-(trifluoromethyl)pyridine-2-carboxamide] | – | –
5400 | 264 | CC(C)(O)c1cc2nn(CCO)cc2cc1NC(=O)c1cccc(C(F)(F)F)n1 [Example 5, N-[2-(2-Hydroxyethyl)-6-(2-hydroxypropan-2-yl)-2H-indazol-5-yl]-6-(trifluoromethyl)pyridine-2-carboxamide] | – | –
900 | 35.7 | CC(C)(O)c1cc2nn(CCCO)cc2cc1NC(=O)c1cccc(C(F)(F)F)n1 [Example 6, N-[6-(2-Hydroxypropan-2-yl)-2-(3-hydroxypropyl)-2H-indazol-5-yl]-6-(trifluoromethyl)pyridine-2-carboxamide] | – | –
16400 | 867 | O=C(Nc1cc2cn(CCO)nc2cc1CO)c1cccc(C(F)(F)F)n1 [Example 7, N-[2-(2-Hydroxyethyl)-6-(hydroxymethyl)-2H-indazol-5-yl]-6-(trifluoromethyl)pyridine-2-carboxamide] | – | –
1000 | 15 | CC(C)(O)c1cc2nn(CC3COC3)cc2cc1NC(=O)c1cccc(C(F)(F)F)n1 [Example 8, N-[6-(2-Hydroxypropan-2-yl)-2-(oxetan-3-ylmethyl)-2H-indazol-5-yl]-6-(trifluoromethyl)pyridine-2-carboxamide] | – | –
1000 | 18.5 | CC(C)(O)c1cc2nn(CCCS(C)(=O)=O)cc2cc1NC(=O)c1cccc(C(F)(F)F)n1 [Example 10, N-{6-(2-Hydroxypropan-2-yl)-2-[3-(methylsulphonyl)propyl]-2H-indazol-5-yl}-6-(trifluoromethyl)pyridine-2-carboxamide] | – | –
200 | 12.3 | CC(C)(O)c1cc2nn(CCCO)cc2cc1NC(=O)c1cccc(C(F)F)n1 [Example 15, 6-(Difluoromethyl)-N-[6-(2-hydroxypropan-2-yl)-2-(3-hydroxypropyl)-2H-indazol-5-yl]pyridine-2-carboxamide] | – | –
200 | 21.5 | CC(C)(O)c1cc2nn(CCCC(F)(F)F)cc2cc1NC(=O)c1cccc(C(F)(F)F)n1 [Example 16, N-[6-(2-Hydroxypropan-2-yl)-2-(4,4,4-trifluorobutyl)-2H-indazol-5-yl]-6-(trifluoromethyl)pyridine-2-carboxamide] | – | –
500 | 36 | CC(C)(O)c1cc2nn(CCCOC(F)(F)F)cc2cc1NC(=O)c1cccc(C(F)(F)F)n1 [Example 17, N-{6-(2-Hydroxypropan-2-yl)-2-[3-(trifluoromethoxy)propyl]-2H-indazol-5-yl}-6-(trifluoromethyl)pyridine-2-carboxamide] | – | –
300 | 47.5 | CC(C)(O)c1cc2nn(CCCOCC(F)(F)F)cc2cc1NC(=O)c1cccc(C(F)(F)F)n1 [Example 18, N-{6-(2-Hydroxypropan-2-yl)-2-[3-(2,2,2-trifluoroethoxy)propyl]-2H-indazol-5-yl}-6-(trifluoromethyl)pyridine-2-carboxamide] | – | –
1800 | 117 | CC(C)(O)c1cccc(C(=O)Nc2cc3cn(CCCC(F)(F)F)nc3cc2C(C)(C)O)n1 [Example 21, 6-(2-Hydroxypropan-2-yl)-N-[6-(2-hydroxypropan-2-yl)-2-(4,4,4-trifluorobutyl)-2H-indazol-5-yl]pyridine-2-carboxamide] | – | –
– | 3.7 | CC(C)(O)c1cc2nn(CCC3(O)CC3)cc2cc1NC(=O)c1cccc(C(F)(F)F)n1 [Example 22, N-{2-[2-(1-Hydroxycyclopropyl)ethyl]-6-(2-hydroxypropan-2-yl)-2H-indazol-5-yl}-6-(trifluoromethyl)pyridine-2-carboxamide] | – | –

Further lines, the molecule ahead of its results:

Compound | IC50 ([1]; THP-1, 0.05 μg/ml LPS, 17 h) [nM] | IC50 [2, 3] [nM] | IC50 ([1]; THP-1, 17 h) [nM] | IC50 [2] [nM]
COCCn1cc2cc(NC(=O)c3cccc(C(F)(F)F)n3)c(CO)cc2n1 [Example 2, N-[6-(Hydroxymethyl)-2-(2-methoxyethyl)-2H-indazol-5-yl]-6-(trifluoromethyl)pyridine-2-carboxamide] | 15100 | – | – | –
COCCCn1cc2cc(NC(=O)c3cccc(C(F)(F)F)n3)c(CO)cc2n1 [Example 4, N-[6-(Hydroxymethyl)-2-(3-methoxypropyl)-2H-indazol-5-yl]-6-(trifluoromethyl)pyridine-2-carboxamide] | 5600 | 52.7 | – | –
O=C(Nc1cc2cn(CC3COC3)nc2cc1CO)c1cccc(C(F)(F)F)n1 [Example 9, N-[6-(Hydroxymethyl)-2-(oxetan-3-ylmethyl)-2H-indazol-5-yl]-6-(trifluoromethyl)pyridine-2-carboxamide] | 6500 | 104 | – | –
CC(C)(O)CCn1cc2cc(NC(=O)c3cccc(C(F)F)n3)c(C(C)(C)O)cc2n1 [Example 13, 6-(Difluoromethyl)-N-[2-(3-hydroxy-3-methylbutyl)-6-(2-hydroxypropan-2-yl)-2H-indazol-5-yl]pyridine-2-carboxamide] | – | 1.3 | 100 | –
CC(C)(O)c1cc2nn(CCS(C)(=O)=O)cc2cc1NC(=O)c1cccc(C(F)F)n1 [Example 14, 6-(Difluoromethyl)-N-{6-(2-hydroxypropan-2-yl)-2-[2-(methylsulphonyl)ethyl]-2H-indazol-5-yl}pyridine-2-carboxamide] | 200 | 10.8 | – | –
Cc1nc(C(=O)Nc2cc3cn(CCC(C)(C)O)nc3cc2C(C)(C)O)ccc1F [Example 19, 5-Fluoro-N-[2-(3-hydroxy-3-methylbutyl)-6-(2-hydroxypropan-2-yl)-2H-indazol-5-yl]-6-methylpyridine-2-carboxamide] | – | 8.9 | 100 | –
Cc1cccc(C(=O)Nc2cc3cn(CCC(C)(C)O)nc3cc2C(C)(C)O)n1 [Example 20, N-[2-(3-Hydroxy-3-methylbutyl)-6-(2-hydroxypropan-2-yl)-2H-indazol-5-yl]-6-methylpyridine-2-carboxamide] | 200 | 13.3 | – | –
COCCn1cc2cc(NC(=O)c3cccc(C(F)(F)F)n3)c(C(=O)OC)cc2n1 [Intermediate 4-2, Methyl 2-(2-methoxyethyl)-5-({[6-(trifluoromethyl)pyridin-2-yl]carbonyl}amino)-2H-indazole-6-carboxylate] | – | – | – | 21.7
COCCCn1cc2cc(NC(=O)c3cccc(C(F)(F)F)n3)c(C(=O)OC)cc2n1 [Intermediate 4-3, Methyl 2-(3-methoxypropyl)-5-({[6-(trifluoromethyl)pyridin-2-yl]carbonyl}amino)-2H-indazole-6-carboxylate] | – | – | – | 13
COC(=O)c1cc2nn(CCC(C)(C)O)cc2cc1NC(=O)c1cccc(C(F)(F)F)n1 [Intermediate 4-4, Methyl 2-(3-hydroxy-3-methylbutyl)-5-({[6-(trifluoromethyl)pyridin-2-yl]carbonyl}amino)-2H-indazole-6-carboxylate] | – | – | – | 6.2
